According to patent US10934274B2, “Quinoline derivatives as TAM RTK inhibitors” (Qurient Co., Ltd., priority 2015, dated 2021):

Legend:
Axl = molecular target: T1, Axl (Homo sapiens, UniProt P30530); experiment: LanthaScreen Eu kinase binding assay, Axl; conditions: Tracer 236
T1 construct: purchased Life Technologies
T1 sequence (P30530 26-894): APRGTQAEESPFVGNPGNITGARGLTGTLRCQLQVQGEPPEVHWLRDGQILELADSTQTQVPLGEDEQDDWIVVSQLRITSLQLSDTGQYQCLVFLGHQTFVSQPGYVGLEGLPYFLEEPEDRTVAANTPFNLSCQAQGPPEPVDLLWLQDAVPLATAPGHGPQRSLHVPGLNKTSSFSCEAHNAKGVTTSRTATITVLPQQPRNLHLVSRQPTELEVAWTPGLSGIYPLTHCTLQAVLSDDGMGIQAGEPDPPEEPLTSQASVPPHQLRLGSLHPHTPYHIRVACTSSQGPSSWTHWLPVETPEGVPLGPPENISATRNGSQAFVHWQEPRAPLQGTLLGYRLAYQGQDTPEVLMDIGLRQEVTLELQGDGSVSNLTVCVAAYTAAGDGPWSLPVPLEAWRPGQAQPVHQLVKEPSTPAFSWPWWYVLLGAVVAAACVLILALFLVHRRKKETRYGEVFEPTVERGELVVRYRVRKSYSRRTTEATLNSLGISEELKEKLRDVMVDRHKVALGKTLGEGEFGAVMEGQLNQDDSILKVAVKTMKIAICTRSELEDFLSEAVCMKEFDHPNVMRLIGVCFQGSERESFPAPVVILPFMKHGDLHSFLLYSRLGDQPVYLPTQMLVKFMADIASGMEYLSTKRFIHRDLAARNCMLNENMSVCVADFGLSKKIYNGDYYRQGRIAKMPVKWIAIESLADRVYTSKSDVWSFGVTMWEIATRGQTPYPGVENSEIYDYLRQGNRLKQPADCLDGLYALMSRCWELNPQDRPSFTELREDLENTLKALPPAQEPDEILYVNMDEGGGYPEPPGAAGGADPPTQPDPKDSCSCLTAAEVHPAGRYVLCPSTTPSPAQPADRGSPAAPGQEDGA

TYRO3 = molecular target: T2, TYRO3 (Homo sapiens, UniProt Q06418); experiment: LanthaScreen Eu kinase binding assay, TYRO3; conditions: Tracer 236
T2 construct: purchased Life Technologies
T2 sequence (Q06418 41-890): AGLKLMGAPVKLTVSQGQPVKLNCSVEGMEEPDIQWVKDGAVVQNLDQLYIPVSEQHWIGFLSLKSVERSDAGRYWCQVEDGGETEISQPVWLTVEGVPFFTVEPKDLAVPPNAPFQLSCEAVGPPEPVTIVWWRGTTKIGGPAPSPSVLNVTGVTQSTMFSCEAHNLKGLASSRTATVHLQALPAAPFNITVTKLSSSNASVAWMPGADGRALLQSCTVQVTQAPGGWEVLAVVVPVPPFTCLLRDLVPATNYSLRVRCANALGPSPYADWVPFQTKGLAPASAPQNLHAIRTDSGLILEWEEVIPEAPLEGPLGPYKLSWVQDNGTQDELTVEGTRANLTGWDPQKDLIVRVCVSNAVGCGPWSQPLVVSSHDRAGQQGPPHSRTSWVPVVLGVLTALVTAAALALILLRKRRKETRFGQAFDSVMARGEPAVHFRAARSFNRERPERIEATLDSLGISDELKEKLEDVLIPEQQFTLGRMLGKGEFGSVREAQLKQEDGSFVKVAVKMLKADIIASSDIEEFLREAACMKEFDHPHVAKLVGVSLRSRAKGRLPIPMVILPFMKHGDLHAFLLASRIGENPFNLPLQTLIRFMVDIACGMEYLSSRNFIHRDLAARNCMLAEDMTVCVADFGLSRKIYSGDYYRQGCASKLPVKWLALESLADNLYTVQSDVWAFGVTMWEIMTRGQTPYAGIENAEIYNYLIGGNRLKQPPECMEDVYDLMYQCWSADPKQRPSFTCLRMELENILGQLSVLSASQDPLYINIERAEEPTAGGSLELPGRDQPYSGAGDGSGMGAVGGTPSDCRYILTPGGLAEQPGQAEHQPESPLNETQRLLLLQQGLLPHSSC

Mer = molecular target: T3, Mer (Homo sapiens, UniProt Q12866); experiment: LanthaScreen Eu kinase binding assay, Mer; conditions: Tracer 236
T3 construct: purchased Life Technologies
T3 sequence (Q12866 21-999): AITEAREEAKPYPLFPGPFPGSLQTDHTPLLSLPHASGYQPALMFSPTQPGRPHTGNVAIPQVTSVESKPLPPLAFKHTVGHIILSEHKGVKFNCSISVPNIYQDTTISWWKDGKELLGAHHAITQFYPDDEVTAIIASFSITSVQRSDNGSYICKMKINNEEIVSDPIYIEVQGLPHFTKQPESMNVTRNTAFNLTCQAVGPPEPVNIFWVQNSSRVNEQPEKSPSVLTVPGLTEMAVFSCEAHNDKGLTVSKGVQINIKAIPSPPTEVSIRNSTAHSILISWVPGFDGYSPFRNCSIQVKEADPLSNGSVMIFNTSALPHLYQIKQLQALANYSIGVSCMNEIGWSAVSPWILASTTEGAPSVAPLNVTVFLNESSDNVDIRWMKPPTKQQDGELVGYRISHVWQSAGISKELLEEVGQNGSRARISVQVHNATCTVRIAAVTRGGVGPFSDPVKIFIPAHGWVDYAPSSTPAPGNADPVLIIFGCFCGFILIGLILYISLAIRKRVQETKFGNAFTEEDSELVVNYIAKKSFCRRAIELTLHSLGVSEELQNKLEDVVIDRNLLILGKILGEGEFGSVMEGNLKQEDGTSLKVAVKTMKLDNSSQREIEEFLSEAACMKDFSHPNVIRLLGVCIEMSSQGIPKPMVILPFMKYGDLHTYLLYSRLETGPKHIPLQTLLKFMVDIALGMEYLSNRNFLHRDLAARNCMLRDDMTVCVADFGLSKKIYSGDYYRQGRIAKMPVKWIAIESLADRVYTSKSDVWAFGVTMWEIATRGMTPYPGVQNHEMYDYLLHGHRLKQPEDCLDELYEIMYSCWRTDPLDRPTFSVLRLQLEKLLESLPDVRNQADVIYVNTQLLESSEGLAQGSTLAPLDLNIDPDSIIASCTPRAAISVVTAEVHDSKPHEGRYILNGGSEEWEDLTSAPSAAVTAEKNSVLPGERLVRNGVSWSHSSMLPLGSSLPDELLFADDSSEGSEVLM

Met = molecular target: T4, Met (Homo sapiens, UniProt P08581); experiment: LanthaScreen Eu kinase binding assay, Met; conditions: Tracer 236, read-out: cMet kinase binding activity (Kd)
T4 construct: purchased Life Technologies
T4 sequence (P08581 25-1390): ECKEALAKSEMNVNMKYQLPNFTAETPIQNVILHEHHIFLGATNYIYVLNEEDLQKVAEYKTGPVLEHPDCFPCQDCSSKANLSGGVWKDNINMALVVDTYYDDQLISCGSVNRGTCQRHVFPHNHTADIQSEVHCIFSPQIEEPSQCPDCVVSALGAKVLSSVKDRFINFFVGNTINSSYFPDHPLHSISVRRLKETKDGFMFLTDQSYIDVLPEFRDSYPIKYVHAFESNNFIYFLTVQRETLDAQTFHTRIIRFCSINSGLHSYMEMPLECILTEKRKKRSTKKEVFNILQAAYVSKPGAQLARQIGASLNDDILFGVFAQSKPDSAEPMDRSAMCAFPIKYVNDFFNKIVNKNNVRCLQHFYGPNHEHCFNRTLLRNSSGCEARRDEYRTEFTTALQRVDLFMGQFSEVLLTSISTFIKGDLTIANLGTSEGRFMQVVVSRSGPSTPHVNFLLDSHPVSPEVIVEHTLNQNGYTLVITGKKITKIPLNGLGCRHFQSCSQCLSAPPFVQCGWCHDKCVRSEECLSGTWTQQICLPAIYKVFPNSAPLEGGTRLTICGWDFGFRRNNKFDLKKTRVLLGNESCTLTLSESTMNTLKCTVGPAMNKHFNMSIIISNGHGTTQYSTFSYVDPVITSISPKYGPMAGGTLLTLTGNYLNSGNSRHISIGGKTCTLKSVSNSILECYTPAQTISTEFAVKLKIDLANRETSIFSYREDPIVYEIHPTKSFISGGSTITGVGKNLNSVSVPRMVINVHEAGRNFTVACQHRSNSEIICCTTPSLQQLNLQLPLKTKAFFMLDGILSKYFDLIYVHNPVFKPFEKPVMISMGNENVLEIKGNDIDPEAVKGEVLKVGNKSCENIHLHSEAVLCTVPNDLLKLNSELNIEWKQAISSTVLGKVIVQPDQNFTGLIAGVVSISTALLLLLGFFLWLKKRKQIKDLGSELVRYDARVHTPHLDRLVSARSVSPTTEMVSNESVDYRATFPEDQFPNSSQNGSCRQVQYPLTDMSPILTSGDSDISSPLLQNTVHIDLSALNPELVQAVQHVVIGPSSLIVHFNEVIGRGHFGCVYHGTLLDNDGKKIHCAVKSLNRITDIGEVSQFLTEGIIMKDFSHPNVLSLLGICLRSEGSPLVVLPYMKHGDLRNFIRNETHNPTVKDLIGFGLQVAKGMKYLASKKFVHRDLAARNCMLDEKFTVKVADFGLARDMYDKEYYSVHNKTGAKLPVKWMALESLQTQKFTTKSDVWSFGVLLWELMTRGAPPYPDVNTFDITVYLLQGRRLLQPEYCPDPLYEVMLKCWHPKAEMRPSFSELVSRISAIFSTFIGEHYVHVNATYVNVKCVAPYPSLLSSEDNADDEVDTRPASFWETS

| SMILES | Kd (Axl) | Kd (TYRO3) | Kd (Mer) | Kd (Met) |
| --- | --- | --- | --- | --- |
| CCOc1cn(-c2cncnc2OC)nc1C(=O)Nc1ccc(Oc2ccnc3cc(OC)c(OC)cc23)cn1 [Compound 175] | < 100 nM | < 100 nM | < 100 nM | < 100 nM |
| CCOc1cn(C2CCN(C)CC2)nc1C(=O)Nc1ccc(Oc2ccnc3cc(OC)c(OC)cc23)cc1F [Compound 222] | 100 to 1000 nM | ≥ 1000 nM | 100 to 1000 nM | ≥ 1000 nM |
| CCOc1cn(-c2cnccc2C(=O)OC)nc1C(=O)Nc1ccc(Oc2ccnc3cc(OC)c(OC)cc23)cn1 [Compound 172] | < 100 nM | < 100 nM | < 100 nM | < 100 nM |
| CCOc1cn(-c2ccc(C#N)nc2)nc1C(=O)Nc1ccc(Oc2ccnc3cc(OC)c(OC)cc23)cn1 [Compound 50] | 100 to 1000 nM | ≥ 1000 nM | ≥ 1000 nM | ≥ 1000 nM |
| CCOc1cn(-c2cnc(C(F)(F)F)nc2)nc1C(=O)Nc1ccc(Oc2ccnc3cc(OC)c(OC)cc23)cn1 [Compound 144] | < 100 nM | 100 to 1000 nM | < 100 nM | 100 to 1000 nM |
| CCOc1cn(-c2ncc(N)nc2C)nc1C(=O)Nc1ccc(Oc2ccnc3cc(OC)c(OC)cc23)cn1 [Compound 143] | < 100 nM | < 100 nM | < 100 nM | < 100 nM |
| COc1cc2nccc(Oc3ccc(NC(=O)c4nn(-c5cc(F)ccc5Cl)cc4OCC(F)(F)F)nc3)c2cc1OC [Compound 279] | < 100 nM | < 100 nM | < 100 nM | < 100 nM |
| COc1cc2nccc(Oc3ccc(NC(=O)c4nn(-c5ccc(F)cc5C)cc4OCCN(C)C)cc3F)c2cc1OC [Compound 276] | < 100 nM | 100 to 1000 nM | < 100 nM | < 100 nM |
| CCOc1cnn(C2CCOC2)c1C(=O)Nc1ccc(Oc2ccnc3cc(OC)c(OC)cc23)cn1 (stereo not drawn) [Compound 77] | 100 to 1000 nM | 100 to 1000 nM | < 100 nM | 100 to 1000 nM |
| CCOc1cn(-c2cccnc2)nc1C(=O)Nc1ncc(Oc2ccnc3cc(OC)c(OC)cc23)cc1F [Compound 154] | < 100 nM | ≥ 1000 nM | < 100 nM | ≥ 1000 nM |
| CCOc1cn(-c2cnc(C(F)(F)F)cn2)nc1C(=O)Nc1ccc(Oc2ccnc3cc(OC)c(OC)cc23)cn1 [Compound 159] | ≥ 1000 nM | ≥ 1000 nM | ≥ 1000 nM | ≥ 1000 nM |
| CCOc1cn(-c2ccc(NC(C)C)cc2Cl)nc1C(=O)Nc1ccc(Oc2ccnc3cc(OC)c(OC)cc23)cn1 [Compound 24] | 100 to 1000 nM | ≥ 1000 nM | < 100 nM | 100 to 1000 nM |
| CCOc1cn(CC2CCCN(C)C2)nc1C(=O)Nc1ccc(Oc2ccnc3cc(OC)c(OC)cc23)cc1F (stereo not drawn) [Compound 214] | 100 to 1000 nM | 100 to 1000 nM | 100 to 1000 nM | 100 to 1000 nM |
| CCOc1cnn(Cc2cccnc2)c1C(=O)Nc1ccc(Oc2ccnc3cc(OC)c(OC)cc23)cn1 [Compound 84] | 100 to 1000 nM | ≥ 1000 nM | < 100 nM | < 100 nM |
| CCOc1cn(CC2CCNCC2)nc1C(=O)Nc1ccc(Oc2ccnc3cc(OC)c(OC)cc23)cc1F [Compound 218] | 100 to 1000 nM | 100 to 1000 nM | 100 to 1000 nM | 100 to 1000 nM |
| CCOc1cn(CCN(C)C)nc1C(=O)Nc1ccc(Oc2ccnc3cc(OC)c(OC)cc23)cn1 [Compound 49] | 100 to 1000 nM | 100 to 1000 nM | < 100 nM | 100 to 1000 nM |
| CCOc1cn(-c2cccnc2)nc1C(=O)Nc1cnc(Oc2ccnc3cc(OC)c(OC)cc23)nc1 [Compound 60] | ≥ 1000 nM | ≥ 1000 nM | ≥ 1000 nM | ≥ 1000 nM |
| CCOc1c[nH]nc1C(=O)Nc1ccc(Oc2ccnc3cc(OC)c(OC)cc23)cn1 [Compound 22] | 100 to 1000 nM | < 100 nM | < 100 nM | 100 to 1000 nM |
| COc1cc2nccc(Oc3ccc(NC(=O)c4nn(-c5ccc(F)c(C(C)=O)c5)cc4OCC(F)(F)F)nc3)c2cc1OC [Compound 280] | < 100 nM | < 100 nM | < 100 nM | < 100 nM |
| CCOc1cn(C2CCNC2)nc1C(=O)Nc1ccc(Oc2ccnc3cc(OC)c(OC)cc23)cn1 (stereo not drawn) [Compound 69] | ≥ 1000 nM | ≥ 1000 nM | 100 to 1000 nM | 100 to 1000 nM |
| CCOc1cnn(CCn2cccn2)c1C(=O)Nc1ccc(Oc2ccnc3cc(OC)c(OC)cc23)cn1 [Compound 42] | 100 to 1000 nM | ≥ 1000 nM | < 100 nM | 100 to 1000 nM |
| CCOc1cn(-c2ncccc2CN(C)C)nc1C(=O)Nc1ccc(Oc2ccnc3cc(OC)c(OC)cc23)cn1 [Compound 142] | 100 to 1000 nM | 100 to 1000 nM | < 100 nM | < 100 nM |
| CCOc1cnn(CC)c1C(=O)Nc1ccc(Oc2ccnc3cc(OC)c(OC)cc23)cn1 [Compound 28] | 100 to 1000 nM | ≥ 1000 nM | 100 to 1000 nM | 100 to 1000 nM |
| CCOc1cnn(-c2ccc(C(C)(C)C)cc2)c1C(=O)Nc1ccc(Oc2ccnc3cc(OC)c(OC)cc23)cn1 [Compound 123] | 100 to 1000 nM | ≥ 1000 nM | 100 to 1000 nM | 100 to 1000 nM |
| CCOc1cn(-c2c(CN(C)C)ccnc2C)nc1C(=O)Nc1ccc(Oc2ccnc3cc(OC)c(OC)cc23)cn1 [Compound 131] | 100 to 1000 nM | ≥ 1000 nM | 100 to 1000 nM | 100 to 1000 nM |
| CCOc1nn(-c2ccc(F)cc2C)cc1C(=O)Nc1ccc(Oc2ccnc3cc(OC)c(OC)cc23)c(F)c1 [Compound 277] | ≥ 1000 nM | < 100 nM | 100 to 1000 nM | ≥ 1000 nM |
| CCOc1cnn(CCO)c1C(=O)Nc1ccc(Oc2ccnc3cc(OC)c(OC)cc23)cn1 [Compound 72] | ≥ 1000 nM | ≥ 1000 nM | 100 to 1000 nM | 100 to 1000 nM |
